Reference: publication PMC8011576 (Nature biomedical engineering, 2020)
Entries after “also recorded” stand apart in the source; their conditions may differ. Like-named read-outs stand apart in the source and are kept apart here.

Tests used:
[1] = test system: OCT2; experiment: Western blot of OCT2 in Kidney Chip; format: cell-based, human; conditions: cisplatin exposure, Western blot vs controls
[2] = test system: Gut Chip; conditions: nicotine in epithelial lumen
[3] = cited from earlier work
[4] = rodent in vivo; ref Yamazaki et al [35]; cited from earlier work
[5] = test system: CYP3A4; conditions: nicotine exposure, linked chips
[6] = test system: first pass human Organ Chips; conditions: nicotine exposure, linked Gut, Liver, Kidney Chips
[7] = 396±16 μM nicotine infused into Gut Chip lumen for 84 hrs, MS
[8] = test system: Liver Chip; experiment: Albumin production in Liver Chip; format: cell-based, human; conditions: nicotine exposure, linked chips
[9] = Human clinical nicotine PK; format: in vivo; conditions: blood, oral, 16 μM
[10] = test system: intestinal epithelial cells and endothelial cells in Transwell inserts; conditions: nicotine, same intestinal epithelial and endothelial cells
[11] = human clinical data, ref Digard et al. [28]

SMILES | OCT2 expression in the Kidney Chip [1] | intestinal barrier function of the Gut Chip, inulin tracer [2] | intestinal barrier function of the Gut Chip, Cascade Blue tracer ([2]; P < 0.03) | unbound in vivo ([3]; clinical studies) | Liver Intrinsic Clearance, CLint [3, 11] | Liver Secondary Intrinsic Clearance, CLint, sec [3, 11] | Kidney Renal Clearance, CLR [4] | Liver Intrinsic Clearance, CLint [4] | CYP3A4 activity in the Gut Chip [5] | toxicity (LDH release) in first pass human Organ Chips [6] | maximum level measured in the AV Reservoir [7] | albumin production in the Liver Chip [8] | half-life [9] | barrier change by TEER in static Transwell inserts [10]
N.N.[Cl][Pt][Cl] [Cisplatin, cisplatin] | increased; also recorded: upregulation |  |  |  |  |  |  |  |  |  |  |  |  | 
CN1CCC[C@H]1c1cccnc1 [Nicotine, nicotine] |  | could not detect any effect | significantly increased | 40% | 12.5 ml/min/kg.BW | 0.74 ml/min/kq.BW | 5.5 ml/min/kg.BW | 300 ml/min/kg.BW | remained unchanged | did not detect toxicity | 0.8 ± 0.08 µM | remained unchanged | 10.6 min | did not detect a barrier change
